Source: US12240854B2, “TRAF 6 inhibitors” (Helmholtz Zentrum München - Deutsches Forschungszentrum für …, priority 2018, dated 2025)
“Also recorded” adds a separate entry of the source.

These compounds were tested against T1, TRAF6-Ubc13 binding in HEK293T cells (Homo sapiens, UniProt Q9Y4K3) (assay: Co-immunoprecipitation of HA-TRAF6 and Ubc13 in HEK 293T cells). Details: not given.
T1 construct: RING-Zincfinger1 (RZ1) domain (residues 50-159) of human TRAF6 wildtype; expressed in transfected cells; host or cells: HEK 293T
T1 sequence (Q9Y4K3 50-159): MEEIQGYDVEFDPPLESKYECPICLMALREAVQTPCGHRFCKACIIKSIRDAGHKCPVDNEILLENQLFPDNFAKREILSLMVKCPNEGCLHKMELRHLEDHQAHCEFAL
Assay type: cell-based
Procedure: To study the interaction of TRAF6 and Ubc13 in cells, 1×10^6 293T cells were seeded and after 18 hours cells were transfected with 1 μg pEF-HA empty or pEF-HA-TRAF6 RZ1 plasmid using the X-tremeGENE HP DNA transfection reagent (Roche). 6 hours upon transfection, cells were treated with compound or DMSO. After 42 hours further incubation, cells were harvested in Co-IP lysis buffer and HA-TRAF6 was immunoprecipitated with anti-HA affinity matrix (Roche). Binding of Ubc13 to TRAF6 was examined in Western Blot analysis.

Compound | interaction of endogenous Ubc13 with HA-tagged TRAF6 (co-immunoprecipitation)
Cc1nn(-c2ccc3nnc(C)n3n2)c(C)c1CCC(=O)N1CCC(c2ccccn2)CC1 [HZM06-7, 3-(3,5-dimethyl-1-(3-methyl-[1,2,4]triazolo[4,3-b]pyridazin-6-yl)-1H-pyrazol-4-yl)-1-(4-(pyridin-2-yl)piperidin-1-yl)propan-1-one] | also active in cells; also recorded: most active analogs
Cc1nn(-c2ccc3nnc(C)n3n2)c(C)c1CCC(=O)N1CCN(Cc2ccc(F)cc2)CC1 [HZM06-3, 1-(4-(4-fluorobenzyl)piperazin-1-yl)-3-(3,5-dimethyl-1-(3-methyl-[1,2,4]triazolo[4,3-b]pyridazin-6-yl)-1H-pyrazol-4-yl)propan-1-one] | also active in cells
Cc1nn(-c2ccc3nnc(C)n3n2)c(C)c1CCC(=O)N1CCN(Cc2ccccc2)CC1 [HZM06-1, 1-(4-benzylpiperazin-1-yl)-3-(3,5-dimethyl-1-(3-methyl-[1,2,4]triazolo[4,3-b]pyridazin-6-yl)-1H-pyrazol-4-yl)propan-1-one] | also active in cells
Cc1nn(-c2ccc3nnc(C)n3n2)c(C)c1CCC(=O)N1CCC(Cc2ccccn2)CC1 [HZM06-10, 3-(3,5-dimethyl-1-(3-methyl-[1,2,4]triazolo[4,3-b]pyridazin-6-yl)-1H-pyrazol-4-yl)-1-(4-((pyridin-2-yl)methyl)piperidin-1-yl)propan-1-one] | also active in cells
Cc1nn(-c2ccc3nnc(C)n3n2)c(C)c1CCC(=O)N1CCC(c2ccccc2)CC1 [HZM06-6, 3-(3,5-dimethyl-1-(3-methyl-[1,2,4]triazolo[4,3-b]pyridazin-6-yl)-1H-pyrazol-4-yl)-1-(4-phenylpiperidin-1-yl)propan-1-one] | also active in cells

Same assay, conditions: listed as HZM06-07

Compound | interaction of endogenous Ubc13 with HA-tagged TRAF6 (co-immunoprecipitation)
Cc1nn(-c2ccc3nnc(C)n3n2)c(C)c1CCC(=O)N1CCC(c2ccccn2)CC1 [HZM06-7, 3-(3,5-dimethyl-1-(3-methyl-[1,2,4]triazolo[4,3-b]pyridazin-6-yl)-1H-pyrazol-4-yl)-1-(4-(pyridin-2-yl)piperidin-1-yl)propan-1-one] | demonstrated inhibition of TRAF6-Ubc13 binding

What follows are compounds tested against T2, TRAF6WTStrepII-Ubc13FH interaction (Homo sapiens, UniProt Q9Y4K3) (assay: ALPHAScreen TRAF6-Ubc13 interaction assay). Details: not given.
T2 construct: RING-Zincfinger1 (RZ1) domain (residues 50-159) of human TRAF6 wildtype; made in house; host or cells: E. coli BL21 codon plus RIPL
T2 sequence (Q9Y4K3 with tags, fused parts or gaps): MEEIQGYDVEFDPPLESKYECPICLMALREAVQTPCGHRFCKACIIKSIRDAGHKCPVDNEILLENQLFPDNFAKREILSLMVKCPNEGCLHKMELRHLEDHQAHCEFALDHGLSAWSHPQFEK
Assay type: binding
From the text: In order to identify small molecules that specifically target the RZ1 domain of TRAF6 and thereby prevent its binding to Ubc13, the ALPHAScreen technology (PerkinElmer) was chosen to detect TRAF6WTStrepII-Ubc13FH interaction in High-Throughput-Screenings as well as Structure Activity Relationship (SAR) analysis.
For performance of an automated ALPHAScreen assay, all following components were pre-diluted in ALPHAScreen buffer (1×PBS, 0.5% BSA, 0.01% Tween-20). First, the TRAF6 protein (end concentration 100 nM, 30 μL volume) was added to 384-well-opti-plates involving the MultiFlo dispensing system (BioTek) followed by transfer of the compounds via the Sciclone G3 transfer station (PerkinElmer). After addition of Ubc13FH (end concentration 75 nM, 10 μL volume) with the MultiFlo system and incubation for one hour at room temperature, both beads (Strep-Tactin Alpha Donor beads and Nickel-Chelate acceptor beads; end concentrations 4 μg each, 10 μL volume each) were mixed and added using the MultiFlo system in subdued light. Read-out of the plates occurred after another hour of incubation at room temperature. Statistical parameters including the coefficient of variation, Z′ factor and signal window were calculated to determine the quality of the HTS campaign. To evaluate the efficacy of the compounds, ALPHAScreen units of compound-treated samples were referred to DMSO control treated samples. Thereby, the TRAF6D57K mutant served as the control for minimum signal and was included on every plate of the screening. Compounds that inhibited TRAF6WTStrepII-Ubc13FH by more than 25% were considered as actives. After elimination of ALPHAScreen frequent hitter compounds and His-tag frequent hitters (Schorpp, K., I. Rothenaigner, E. Salmina, et al., Identification of Small-Molecule Frequent Hitters from AlphaScreen High-Throughput Screens. J Biomol Screen, 2014. 19(5): p. 715-26), 178 compounds were defined as primary hits and were subsequently tested in five-point serial dilution assays (2.5-40 μM) in TRAF6WTStrepII-Ubc13FH ALPHAScreen experiments. Only compounds with dose-dependent effects on TRAF6WTStrepII-Ubc13FH (n=27) were taken for further research. For analog testing, all compounds were analyzed in ten-point titration (0.2-100 μM) in TRAF6WTStrepII-Ubc13FH ALPHAScreen experiments. In parallel, the compounds were tested in the ALPHAScreen TruHits Kit (PerkinElmer) to rule out unspecific interference with the ALPHAScreen technology.

Compound | inhibition of TRAF6-Ubc13 interaction in ALPHAScreen (in words)
Cc1nn(-c2ccc3nnc(C)n3n2)c(C)c1CCC(=O)N1CCN(c2ccccc2)CC1 [Example C25, 3-(3,5-dimethyl-1-(3-methyl-[1,2,4]triazolo[4,3-b]pyridazin-6-yl)-1H-pyrazol-4-yl)-1-(4-phenylpiperazin-1-yl)propan-1-one] | promising hit; also recorded: best results in in-vitro and cell-based assays

Same assay, conditions: TRAF6 100 nM, Ubc13FH 75 nM; class symbols; read-out: IC50 Alphascreen (inhibition of TRAF6-UBC13 interaction)

IC50 | inhibition at 100 µM | Compound
≤ 10 µM |  | Cc1nn(-c2ccc3nnc(C)n3n2)c(C)c1CCC(=O)N1CCN(Cc2ccc3cccnc3c2)CC1 [Example 150]
 | ≥ 30% | Cc1nn(-c2ccc3nnc(C)n3n2)c(C)c1CCC(=O)NC1CCN(c2ccccc2)CC1 [Example 167]
≤ 10 µM |  | Cc1nn(-c2ccc3nnc(C)n3n2)c(C)c1CCC(=O)N1CCN(Cc2ccccc2Cl)CC1 [Example 144]
≤ 3 µM |  | Cc1nn(-c2ccc3nnc(C)n3n2)c(C)c1CCC(=O)N1CCN(Cc2cccc(C(F)(F)F)c2)CC1 [Example 159]
≤ 10 µM |  | Cc1nn(-c2ccc3nnc(C)n3n2)c(C)c1CCC(=O)N1CCN(Cc2cccc(F)c2)CC1 [Example 158]
 | ≥ 30% | Cc1nn(-c2ccc3nnc(C)n3n2)c(C)c1CCC(=O)N1CCCC(Cc2ccccc2)C1 (centres unmarked) [Example 103]
≤ 10 µM |  | Cc1nn(-c2ccc3nnc(C)n3n2)c(C)c1CCC(=O)N1CCN(Cc2cccc(-c3ccccc3)c2)CC1 [Example 128]
≤ 3 µM |  | Cc1nn(-c2ccc3nnc(C)n3n2)c(C)c1CCC(=O)N1CCC(C)(Cc2ccccc2)C1 (centres unmarked) [Example 119]
≤ 30 µM |  | Cc1nn(-c2ccc3nnc(C)n3n2)c(C)c1CCC(=O)N1CCN(Cc2ccc(I)cc2)CC1 [Example 111]
≤ 10 µM |  | Cc1nn(-c2ccc3nnc(C)n3n2)c(C)c1CCC(=O)N1CCN(Cc2cccc(C(N)=O)c2)CC1 [Example 151]
≤ 3 µM |  | Cc1nn(-c2ccc3nnc(C)n3n2)c(C)c1CCC(=O)N1CCN(Cc2cccc(C3CC3)c2)CC1 [Example 161]
≤ 3 µM |  | Cc1nn(-c2ccc3nnc(C)n3n2)c(C)c1CCC(=O)N1CCN(Cc2ccc(C(=O)O)cc2)CC1 [Example 97]
≤ 30 µM |  | Cc1ccc(CN2CCN(C(=O)CCc3c(C)nn(-c4ccc5nnc(C)n5n4)c3C)CC2)cc1 [Example 139]
 | ≥ 30% | Cc1nn(-c2ccc3nnc(C)n3c2)c(C)c1CCC(=O)N1CCCC(Cc2ccccc2)C1 (centres unmarked) [Example 106]
 | ≥ 30% | Cc1nn(-c2ccc3nnc(C)n3n2)c(C)c1CCC(=O)N1CCN(Cc2cccc(C(N)=O)c2)CC1 [Example 100]

Continued, compound first:

Compound | IC50 | inhibition at 100 µM
Cc1nn(-c2ccc3nnc(C)n3n2)c(C)c1CCC(=O)N1CCN(Cc2cccc(-c3nn[nH]n3)c2)CC1 [Example 154] | ≤ 3 µM | 
Cc1nn(-c2ccc3nnc(C)n3n2)c(C)c1CCC(=O)N1CCN(Cc2ccc(-c3nnn[nH]3)cc2)CC1 [Example 164] | ≤ 3 µM | 
Cc1nn(-c2ccc3nnc(C)n3n2)c(C)c1CCC(=O)N1CCN(Cc2ccc(F)c(C(F)(F)F)c2)CC1 [Example 162] | ≤ 10 µM | 
Cc1nn(-c2ccc3nnc(C)n3n2)c(C)c1CCC(=O)N1CCN(Cc2cc(C#N)ccc2Cl)CC1 [Example 191] | ≤ 10 µM | 
Cc1nn(-c2ccc3nnc(C(F)(F)F)n3n2)c(C)c1CCC(=O)N1CCN(Cc2cc(C#N)ccc2Cl)CC1 [Example 183] | ≤ 3 µM | 
Cc1nn(-c2ccc3nnc(C(F)(F)F)n3n2)c(C)c1CCC(=O)N1CCN(Cc2cccc(-c3nnn[nH]3)c2C)CC1 [Example 180] | ≤ 10 µM | 
Cc1nn(-c2ccc3nnc(C)n3n2)c(C)c1CCC(=O)N1CCN(Cc2ccc(-c3nnn[nH]3)cc2F)CC1 [Example 169] | ≤ 10 µM | 
Cc1nn(-c2ccc3nnc(C)n3n2)c(C)c1CCC(=O)N1CCN(Cc2ccc(NS(C)(=O)=O)cc2)CC1 [Example 117] | ≤ 10 µM | 
Cc1nn(-c2ccc3nnc(C)n3n2)c(C)c1CCC(=O)N1CCN(Cc2c(Cl)cccc2Cl)CC1 [Example 142] | ≤ 10 µM | 
Cc1cc(C(=O)O)ccc1CN1CCN(C(=O)CCc2c(C)nn(-c3ccc4nnc(C)n4n3)c2C)CC1 [Example 121] | ≤ 3 µM | 
Cc1nn(-c2ccc3nnc(C)n3n2)c(C)c1CCC(=O)N1CCN(Cc2ccc3cc[nH]c3c2)CC1 [Example 165] | ≤ 10 µM | 
Cc1nn(-c2ccc3nnc(C(F)(F)F)n3n2)c(C)c1CCC(=O)N1CCN(Cc2ccc(C#N)cc2F)CC1 [Example 190] | ≤ 3 µM | 
Cc1nn(-c2ccc3nnc(C)n3n2)c(C)c1CCC(=O)N1CCN(Cc2ccc(S(N)(=O)=O)cc2)CC1 [Example 130] | ≤ 3 µM | 
Cc1cc(CN2CCN(C(=O)CCc3c(C)nn(-c4ccc5nnc(C)n5n4)c3C)CC2)cc([N+](=O)[O-])c1 [Example 129] | ≤ 3 µM | 
Cc1nn(-c2ccc3nnc(C)n3n2)c(C)c1CCC(=O)N1CCN(Cc2ccc(C(=O)O)c(F)c2)CC1 [Example 131] | ≤ 3 µM | 
Cc1nn(-c2ccc3nnc(C(F)(F)F)n3n2)c(C)c1CCC(=O)N1CCN(Cc2ccc(-c3nnn[nH]3)cc2F)CC1 [Example 170] | ≤ 3 µM | 
Cc1nn(-c2ccc3nnc(C)n3n2)c(C)c1CCC(=O)N1CCN(Cc2ccc3oc(=O)ccc3c2)CC1 [Example 166] | ≤ 10 µM | 
Cc1nn(-c2ccc3nnc(C(F)(F)F)n3n2)c(C)c1CCC(=O)N1CCN(Cc2ccc(-c3nnn[nH]3)cc2Cl)CC1 [Example 174] | ≤ 3 µM | 
Cc1cc(CN2CCN(C(=O)CCc3c(C)nn(-c4ccc5nnc(C)n5n4)c3C)CC2)ccc1[N+](=O)[O-] [Example 122] | ≤ 3 µM | 
